Measurements published in US10909691B2, “Automatically classifying animal behavior” (PRESIDENT AND FELLOWS OF HARVARD COLLEGE, priority 2016, dated 2021).

Tested on: mice
Assay: Innate behavioral response to odorant in square odor box (3D depth imaging, AR-HMM analysis)
Type: in vivo, mouse

CC1=NC(C)SC1C (stereo not drawn) [TMT]
observed behavior of mice on odor exposure (TMT delivered to one quadrant of the square box via olfactometer): avoided the quadrant containing the predator cue and displayed prolonged periods of immobility traditionally described as freezing behavior | per frame entropy rate with self-transitions (after TMT exposure): 0.64±0.02 bits | per frame entropy rate without self-transitions (after TMT exposure): 3.66±0.08 bits | number of times the most commonly-expressed freezing trigram was expressed (after TMT exposure, in 300 minutes of imaging): 716 times | change in behavioral modules relative to control (n=15 in TMT, n=25 control, model co-trained on both datasets): several modules were up-or down-regulated after TMT exposure, but no new modules were introduced or eliminated relative to control | average during-sequence velocity of freezing module sequences (under the influence of TMT, 5% concentration, delivered to one quadrant of the box): −0.14±0.54 mm/sec
